The subject of one assay is bovine cartilage slices. The assay can be described thus: Proteoglycan shedding from bovine cartilage slices. In kind it is cell-based. Conditions: Interleukin induced, one week of incubation; compared to unmodified xanthohumol. As for the experimental part: Hyaluronan overproduction causes massive shedding of proteoglycans from cartilage. Bovine cartilage slices were cultivated in organ culture and osteoarthritic reactions were induced by addition on Interleukin and increasing concentrations of xanthohumol-betaine. The amounts of proteoglycan were determined in the cartilage slices and in the medium after one week of incubation.

Assay [1] concerns Str/ort mice. Nature of the assay: Micro-CT of tibial trabecular and cortical bone in Str/ort mice. In kind it is in vivo, mouse. As for the experimental part:
At 10-13 weeks of age, 21 male Str/ort mice (n=7/group) were assigned randomly to vehicle, hylin-betaine and xantho-betaine groups and were treated intraperitoneally 18 weeks with either vehicle (5% DMSO in 95% peanut oil), 50 mg/kg compound of Example 1 (“hylin-betaine”) in 5% DMSO and 95% peanut oil or 50 mg/kg compound of Example 2 (“xantho-betaine”) in 5% DMSO and 95% peanut oil. Micro-CT scanning and analysis were performed as described previously. Briefly, tibiae from vehicle, hylin-betaine and xantho-betaine treated groups were scanned using the Skyscan 1172 (Skyscan, Kontich, Belgium), with x-ray tube operated at 50 kV and 200 Micro-A, 1600 ms exposure time with a 0.5 mm aluminium filter and a voxel size of micro-m 5. The scanning time for each sample was approximately 2 hours. The slices were then reconstructed using NRecon 1.6.9.4 (Skyscan, Kontich, Belgium). 2D/3D analyses were performed using CTAn 1.15.4.0+ version software (Skyscan, Kontich, Belgium). Additionally, 3D visualization and production of colour-coded images of trabecular, cortical and skull bones were conducted using Avizo 9.0.0 software (FEI, Oregon USA). • a. Trabecular analysis: prior to analysis, Micro-CT images were re-oriented in DataViewer 1.5.0 (Skyscan, Kontich, Belgium), such that the cross-section within the transverse plane was perpendicular to the long axis of the bone. Tibial length was measured in CTAn 1.15.4.0+ software using a straight line measuring tool and the appearance of the trabecular ‘bridge’ connecting the two primary spongiosa bone ‘islands’ was set as reference point for analysis of the metaphyseal trabecular bone adjacent to the epiphyseal growth plate. 5% of the total bone length from this point (towards the diaphysis) was utilised for trabecular analysis of the proximal tibia. The trabecular region of interest was drawn freehand using the selection tool of CTAn, a few voxels away from the endocortical surfaces in order to avoid inclusion of remnants of primary spongiosa associated with cortical bone. The selected trabecular regions of interests were analysed using CTAn BatMan software (Skyscan, Kontich, Belgium) and morphometric parameters were recorded. • b. Whole bone cortical analysis: Whole bone analysis was performed on datasets derived from CT scans using BoneJ (version 1.4.0), an ImageJ plugin. Following segmentation, alignment and removal of fibula from the dataset, a minimum bone threshold was selected using a histogram based method in ImageJ which utilises all pixels in a stack to construct a histogram and was further confirmed using ImageJ “threshold function”. The threshold ranged between 22000-22100 and was applied to all datasets to separate higher density bone from soft tissues and air. This threshold was used in “Slice Geometry” function within BoneJ to calculate bone cross sectional area (CSA), second moment of area around the minor axis (Imin), second moment of area around the major axis (Imax), mean thickness determined by local thickness in two dimensions (Ct.Th), ellipticity and resistance to torsion (J). The most proximal (15%) and the most distal portions (25%) of tibial length were excluded from analysis, as these regions include trabecular bone.

Assay [2] has as its system bovine cartilage explants. Nature of the assay: Proteoglycan loss from interleukin activated bovine cartilage explants. In kind it is cell-based. As for the experimental part:
Cartilage explants were weighed (average wet weight: 20 mg) incubated in the absence and presence of IL-1 (2 ng/ml) and the inhibitors at various concentrations for 5 days. The tissues were extracted with 1.5 ml of a solution of 4 M guanidinium hydrochloride, 0.1 M ε-aminohexanoid acid, 5 mM benzamidine, 10 mM N-ethylmaleinimide, 0.5 mM phenylmethylsulfonyl fluoride for 3 days at 4° C. The solution was centrifuged for 5 min at 10.000 g and the proteoglycans were determined in the supernatant by the alcian blue method as described (Bjornsson, S., Anal. Biochem., 1993, 210, 282-291).
Bovine cartilage explants were incubated in the absence and presence of interleukin for stimulation of osteoarthritic reactions and the indicated concentrations of the xanthohumol-betaine (FIG. 6A), xanthohumol-prothiazole (FIG. 6B), quercetin-prothiazole (FIG. 6C), quercetin (FIG. 6D) and xanthohumol (FIG. 6E) for 5 days. The cartilage explants were weighed and the proteoglycan concentrations were determined in the cartilage explants (solid bars) and culture supernatants (open bars).

In assay [3] the test system is Str/ort mice. Nature of the assay: Histology and grading of articular cartilage lesions in Str/ort mice. In kind it is in vivo, mouse. How it is done:
At 10-13 weeks of age, 21 male Str/ort mice (n=7/group) were assigned randomly to vehicle, hylin-betaine and xantho-betaine groups and were treated intraperitoneally 18 weeks with either vehicle (5% DMSO in 95% peanut oil), 50 mg/kg compound of Example 1 (“hylin-betaine”) in 5% DMSO and 95% peanut oil or 50 mg/kg compound of Example 2 (“xantho-betaine”) in 5% DMSO and 95% peanut oil. Dissected right knees were fixed in neutral buffered formalin, decalcified (Immunocal, Quartett, Berlin), wax-embedded and 6 μm coronal sections cut. Multiple sections (five/slide) from 120 μm intervals across the whole joint were stained with Tollidine blue (0.1% in 0.1 M acetate buffer, pH 5.6) and AC lesion severity graded. Sections from right vehicle, hylin-betaine and xantho-betaine treated Str/ort joints were stained with Safranin O. Sections were dewaxed, and AC lesion severity was scored in Str/ort mice by the methods of Chambers et al., (Chambers et al Expression of collagen and aggrecan genes in normal and osteoarthritic murine knee joints. Osteoarthritis and cartilage/OARS, Osteoarthritis Research Society. 2002; 10(1):51-61) consistent with an internationally-recognized system. Briefly, grade 0: normal; grade 1: rough surface or superficial zone lesions; grade 2: lesion down to the intermediate zone; grade 3: lesions down to tidemark or loss of AC; grades 4 and 5: AC loss across between 20% and 50% or 50-80% of condylar surface; grade 6: loss with subchondral bone exposure. Multiple slides (˜10), each containing five 6 μm sections sampled at 120 μm intervals spanning each entire joint were graded. Grading in each joint compartment (lateral/medial, tibia/femur) allowed for a maximum (most severe) grade to be assigned in each section, and used to produce an overall ‘average’ maximum grade in each group of mice, for the entire joint and for each compartment. In addition, a mean score was produced for each joint and for each compartment and these similarly used to produce an overall ‘average’ mean grade in each group of mice. Mean grades provide a measure of the ‘extent’ of AC lesion (representing relative volume) in each joint/compartment.

The test system of assay [4] is Str/ort mice. Nature of the assay: Micro-CT of tibial trabecular and cortical bone in Str/ort mice. It counts as in vivo, mouse. The note with it: 10-90% of total tibial length, vs vehicle.
Where [5] appears, read: 50 mg/kg intraperitoneally, 18 weeks, vs vehicle.

On to `COc1cc(O)c(CC=C(C)C)c(O)c1C(=O)/C=C/c1ccc(OC(=O)C[N+](C)(C)C)cc1.[Cl-]` [Xantho-betaine, (E)-2-(4-(3-(2,4-dihydroxy-6-methoxy-3-(3-methylbut-2-en-1-yl)phenyl)-3-oxoprop-1-en-1-yl)phenoxy)-N,N,N-trimethyl-2-oxoethanaminium chloride], for which the “reduction of shedding of proteoglycan into the medium” value in the assay with bovine cartilage slices is recorded as “more effective”. Moreover, in the assay on Str/ort mice [1] (setting [5]), the “metaphyseal trabecular bone architecture and mass (tibial length, BV/TV, TV, BV, eccentricity, thickness, separation, number)” value was “do not alter”. Moreover, the “cortical cross-sectional area (CSA)” value in the assay on Str/ort mice [1] (apart from one distal region and a region close to tibio-fibula junction) is “do not significantly”. Moreover, in the assay on Str/ort mice [1] (multiple regions across tibial length, vs vehicle), the “predicted tibial resistance to torsion (J)” value is listed as “higher”. In addition, the “mean cortical cross-sectional thickness” value with Str/ort mice [1] (multiple regions from −15-60% tibial length, vs vehicle) was “higher in some regions and lower in other regions”. Besides, in the assay with Str/ort mice [1] (vs vehicle, one region proximally), the “second moment of area around minor axis (Imin)” value is listed as “significantly lowers”. Besides, the tibial ellipticity entry in the assay on Str/ort mice [1] (vs vehicle, region ˜40-50% along the tibia) is recorded as “greater ellipticity”. Besides, in the assay with Str/ort mice [1] (vs vehicle, ˜35-55% of tibial length), the “second moment of area around major axis (Imax)” value was “significantly increased”. Besides, the IC50 in assay [2] (Bos taurus, read-out: IC50 Inhibition of proteoglycan loss) was determined as 300 nM. Also, the “inhibition of proteoglycan loss (protective effect)” value in assay [2] (interleukin stimulated, 5 days) is given as “similarly effective”. The “effect on articular cartilage lesions / development of OA (overall)” value in the assay on Str/ort mice [3] (setting [5]) is “no such protection”. In the assay with Str/ort mice [3] (vs vehicle treated Str/ort mice), the “maximum OA score” value was “not found to be statistically significant”. The “effect on cortical bone (overall)” value with Str/ort mice [4] is on record as “significantly alter”.

The values above are taken from patent US20250017888A1, “COMPOUNDS FOR TREATING DISEASES ASSOCIATED WITH HYALURONAN OVERPRODUCTION” (THE ROYAL VETERINARY COLLEGE, priority 2021, published 2025).
